The test system of data set [1] is RENCA, renal cell carcinoma. The note with it: female, Balb/c, mouse, in vivo.
From the text: (§1) Animals: Balb/c mice, female; tumor: RENCA, renal cell carcinoma; therapy: day (d) 10, 14, 18, 21 intravenous (i.v.); end of trial: d 25.
(§2) The dose is relative to the quantity of doxorubicin present.
Data set [2] concerns RENCA, renal cell carcinoma. Kind of data set: RENCA (renal cell carcinoma) model, antitumoral action at approximately equitoxic dose. The note with it: RENCA in Balb/c mice.
From the text: as §1, §2
The target of data set [3] is HSA-Cys^34-2 (conjugate of DTT-treated human serum albumin with doxorubicin-maleinimide-peptide derivative 2) (UniProt P02768).
Chain of HSA-Cys^34-2 (conjugate of DTT-treated human serum albumin with doxorubicin-maleinimide-peptide derivative 2) (P02768 whole entry, looked up, tested part not stated): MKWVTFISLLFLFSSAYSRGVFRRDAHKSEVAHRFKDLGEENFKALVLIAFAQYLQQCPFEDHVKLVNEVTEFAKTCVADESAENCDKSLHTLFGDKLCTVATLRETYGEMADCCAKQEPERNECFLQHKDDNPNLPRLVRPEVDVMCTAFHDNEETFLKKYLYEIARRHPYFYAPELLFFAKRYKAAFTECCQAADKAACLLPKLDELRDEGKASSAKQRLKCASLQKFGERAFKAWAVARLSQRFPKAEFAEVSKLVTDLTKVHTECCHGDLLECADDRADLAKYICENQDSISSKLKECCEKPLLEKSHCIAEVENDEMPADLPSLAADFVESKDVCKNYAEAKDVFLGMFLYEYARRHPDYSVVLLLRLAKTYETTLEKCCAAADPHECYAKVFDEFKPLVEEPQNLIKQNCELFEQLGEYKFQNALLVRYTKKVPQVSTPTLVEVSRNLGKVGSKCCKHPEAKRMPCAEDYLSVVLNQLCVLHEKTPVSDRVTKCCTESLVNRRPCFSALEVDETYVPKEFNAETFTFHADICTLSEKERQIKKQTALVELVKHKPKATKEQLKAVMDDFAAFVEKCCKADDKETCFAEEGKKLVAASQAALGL

Take `COc1cccc2c1C(=O)c1c(O)c3c(c(O)c1C2=O)C[C@@](O)(C(=O)CO)C[C@@H]3O[C@H]1C[C@H](N)[C@H](O)[C@H](C)O1` [Doxorubicin, doxorubicin]: the “Mortality (d)” value in data set [1] was 1. Moreover, in data set [2] (FIG. 3A), the Visible renal tumors result is “plainly visible renal tumors were observed in all animals”. In data set [2] (FIG. 3B), the “Number of pulmonary metastases, average” value is listed as about 100 metastases per mouse. Also, in data set [2] (i.v. d 10, 14, 18, 21, end of trial d 25, approximately equitoxic doses), the Complete remission result was “no complete remissions”.

On to “matrix metalloprotease MMP 9 (trypsine/aprotinine-activated, from Calbiochem, Germany)”, for which the “liberation of DOXO-Gln-Gly-Ala-Ile due to cleavage with MMP 9 (HPLC gel chromatography, t=0 against t=30 min)” value in data set [3] was “The liberation of DOXO-Gln-Gly-Ala-Ile due to cleavage with MMP 9 was confirmed by HPLC gel chromatography”.

These data come from patent US7445764B1, “Carrier-drug conjugate” (priority 1999, dated 2008).
